# Structures can show the parent of a compound that is named as a salt.
# Molecular target: T1, rhesus H3 receptor (Macaca mulatta, UniProt Q865E1)
# T1 construct: rhesus monkey (Macacca Mulatta) 445 amino acid H3 receptor; (Genbank #AY231164); expressed in transfected cells; host or cells: Flp-In T-REx 293 Cell Line (Invitrogen), pcDNA5/FRT/TO, induced with tetracycline; membranes
# Assay: Rhesus H3 [3H]-Methylhistamine radioligand binding assay (SPA)
# Design: species or system rhesus monkey (Macacca Mulatta)
# Settings: [3H]-Methylhistamine 2 nM, rhesus H3 membranes, Cheng-Prusoff
# Procedure: Rhesus H3 membranes were prepared from the Flp-In T-REx 293 Cell Line (Invitrogen) stably transfected with pcDNA5/FRT/TO (Invitrogen) containing the rhesus monkey (Macacca Mulatta) 445 amino acid H3 receptor. (Genbank #AY231164). Stably transfected cultures were amplified in tissue culture flasks by standard tissue culture methods and induced to express rhesus H3 by exposure to 500 ng/ml tetracycline (Cellgro) for 24 hours. After induction, cells were dissociated from flasks utilizing Cell Stripper (Cellgro). Cells were centrifuged (1K×g, 5 min) and pellet frozen in an ethanol-dry ice bath to disrupt cell membranes. Frozen cell pellet was re-suspended in 5 mM HEPES (pH 7.4, Invitrogen) at 10 ml/1000 cm2 of harvested cells. The cell suspension was drawn through an 18 gauge needle (2-3×) followed by a 23 gauge needle (2-3×) to further disrupt cell membranes. The cell suspension was centrifuged (40K×g, 30 min). Cell membrane pellet was re-suspended in 5 mM HEPES (pH 7.4, Invitrogen) at a final protein concentration of 10 mg/ml. Rhesus H3 membranes were stored under liquid nitrogen prior to use in [3H]-Methylhistamine and GTPγS radioligand binding assays.
# Rhesus H3 radioligand binding assay was performed using rhesus H3 receptor membranes (prepared as described above), [3H]-Methylhistamine (Perkin Elmer) and WGA SPA beads (wheat germ agglutinin scintillation proximity assay) beads (Amersham). The assay was performed in 96-well Opti-Plates (Packard). Each reaction contained 50 μl rhesus H3 membranes (20-30 μg total protein), 50 μl WGA SPA beads (0.1 μg) and 50 μl of 83Ci/mmol [^3H]-Methylhistamine (final concentration 2 nM) and 50 μl of tested compound. The compounds of this invention and/or vehicle were diluted with binding buffer from 10 mM DMSO stocks. Assay plates were sealed with TopSeal (Perkin Elmer) and mixed on shaker (25° C., 1 hour). Assay plates were read on TopCount scintillation counter (Packard). Results were analyzed by Hill transformation and Ki values were determined by Cheng-Prusoff equation.
# T1 sequence (Q865E1 1-445): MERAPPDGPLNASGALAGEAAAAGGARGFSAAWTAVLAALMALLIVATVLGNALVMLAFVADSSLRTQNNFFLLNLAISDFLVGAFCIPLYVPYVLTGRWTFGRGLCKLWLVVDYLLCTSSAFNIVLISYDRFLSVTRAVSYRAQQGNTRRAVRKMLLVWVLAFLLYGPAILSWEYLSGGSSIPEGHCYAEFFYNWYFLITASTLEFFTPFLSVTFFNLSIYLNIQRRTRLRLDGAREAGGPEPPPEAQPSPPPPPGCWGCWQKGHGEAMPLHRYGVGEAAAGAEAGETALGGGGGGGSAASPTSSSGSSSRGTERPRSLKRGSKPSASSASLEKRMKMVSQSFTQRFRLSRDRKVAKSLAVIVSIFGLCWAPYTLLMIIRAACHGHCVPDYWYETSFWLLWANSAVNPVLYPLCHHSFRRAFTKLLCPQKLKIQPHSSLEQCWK
row,Structure (SMILES),Ki [nM]
1,"CC1CCCN1C1CCN(c2ccc(NC(=O)N3CCCCC3)cc2)C1 (stereo not shown) [Example 1, Piperidine-1-carboxylic acid [4-(2-methyl-[1,3′]bipyrrolidinyl-1′-yl)-phenyl]-amide trifluoroacetate]",6
2,"CC(=O)N(C)C1CCN(C(=O)Nc2ccc(N3CCC(N4CCCC4C)C3)c(C)c2)C1 (stereo not shown) [Example 2, 3-(Acetyl-methyl-amino)-pyrrolidine-1-carboxylic acid [3-methyl-4-(2-methyl-[1,3′]bipyrrolidinyl-1′-yl)-phenyl]-amide trifluoroacetate]",89.7
3,"CC1CCCN1C1CCN(c2ccc(NC(=O)NC3CCCCC3)cc2)C1 (stereo not shown) [Example 3, 1-Cyclohexyl-3-[4-(2-methyl-[1,3′]bipyrrolidinyl-1′-yl)-phenyl]-urea trifluoroacetate]",4.1
4,"CC1CCCN1C1CCN(c2ccc(NC(=O)N3CCN(c4ccccc4)CC3)cc2)C1 (stereo not shown) [Example 4, 4-Phenyl-piperazine-1-carboxylic acid [4-(2-methyl-[1,3′]bipyrrolidinyl-1′-yl)-phenyl]-amide trifluoroacetate]",10.6
5,"CC1CCCN1C1CCN(c2ccc(NC(=O)N3CCN(C)CC3)cc2)C1 (stereo not shown) [Example 5, 4-Methyl-piperazine-1-carboxylic acid [4-(2-methyl-[1,3′]bipyrrolidinyl-1′-yl)-phenyl]-amide trifluoroacetate]",25.7
6,"CC1CCCN1C1CCN(c2ccc(NC(=O)N3Cc4ccccc4C3)cc2)C1 (stereo not shown) [Example 6, 1,3-Dihydro-isoindole-2-carboxylic acid [4-(2-methyl-[1,3′]bipyrrolidinyl-1′-yl)-phenyl]-amide trifluoroacetate]",11.1
7,"CC1CCCN1C1CCN(c2ccc(NC(=O)Nc3cccc(C#N)c3)cc2)C1 (stereo not shown) [Example 7, 1-(3-Cyano-phenyl)-3-[4-(2-methyl-[1,3′]bipyrrolidinyl-1′-yl)-phenyl]-urea trifluoroacetate]",7.7
8,"CC1CCCN1C1CCN(c2ccc(NC(=O)NCc3cccs3)cc2)C1 (stereo not shown) [Example 8, 1-[4-(2-Methyl-[1,3′]bipyrrolidinyl-1′-yl)-phenyl]-3-thiophen-2-ylmethyl-urea trifluoroacetate]",2
9,"Cc1cc(NC(=O)NCc2cc(Cl)cc(Cl)c2)ccc1N1CCC(N2CCCC2C)C1 (stereo not shown) [Example 9, 1-(3,5-Dichloro-benzyl)-3-[3-methyl-4-(2-methyl-[1,3′]bipyrrolidinyl-1′-yl)-phenyl]-urea trifluoroacetate]",28.9
10,"Cc1cc(NC(=O)NC2CCCCC2)ccc1N1CCC(N2CCCC2C)C1 (stereo not shown) [Example 10, 1-Cyclohexyl-3-[3-methyl-4-(2-methyl-[1,3′]bipyrrolidinyl-1′-yl)-phenyl]-urea trifluoroacetate]",11.2
11,"Cc1cc(NC(=O)NCc2cccs2)ccc1N1CCC(N2CCCC2C)C1 (stereo not shown) [Example 11, 1-[3-Methyl-4-(2-methyl-[1,3′]bipyrrolidinyl-1′-yl)-phenyl]-3-thiophen-2-ylmethyl-urea trifluoroacetate]",8.4
12,"CC1CCCN1C1CCN(c2ccc(NC(=O)Nc3cc(Cl)cc(Cl)c3)cc2)C1 (stereo not shown) [Example 12, 1-(3,5-Dichloro-phenyl)-3-[4-(2-methyl-[1,3′]bipyrrolidinyl-1′-yl)-phenyl]-urea trifluoroacetate]",19.1
13,"CC(=O)N1CCN(C(=O)Nc2ccc(N3CCC(N4CCCC4C)C3)cc2)CC1 (stereo not shown) [Example 13, 4-Acetyl-piperazine-1-carboxylic acid [4-(2-methyl-[1,3′]bipyrrolidinyl-1′-yl)-phenyl]-amide trifluoroacetate]",34.1
14,"CC(=O)N(C)C1CCN(C(=O)Nc2ccc(N3CCC(N4CCCC4C)C3)cc2)C1 (stereo not shown) [Example 14, 3-(Acetyl-methyl-amino)-pyrrolidine-1-carboxylic acid [4-(2-methyl-[1,3′]bipyrrolidinyl-1′-yl)-phenyl]-amide trifluoroacetate]",35.5
15,"Cc1cc(N2CCC(N3CCCC3C)C2)ccc1NC(=O)Nc1cc(Cl)cc(Cl)c1 (stereo not shown) [Example 15, 1-(3,5-Dichloro-phenyl)-3-[2-methyl-4-(2-methyl-[1,3′]bipyrrolidinyl-1′-yl)-phenyl]-urea trifluoroacetate]",22.2
16,"Cc1cc(N2CCC(N3CCCC3C)C2)ccc1NC(=O)NC1CCCCC1 (stereo not shown) [Example 16, 1-Cyclohexyl-3-[2-methyl-4-(2-methyl-[1,3′]bipyrrolidinyl-1′-yl)-phenyl]-urea trifluoroacetate]",4.6
17,"Cc1cc(N2CCC(N3CCCC3C)C2)ccc1NC(=O)N1CCN(C)CC1 (stereo not shown) [Example 17, 4-Methyl-piperazine-1-carboxylic acid [2-methyl-4-(2-methyl-[1,3′]bipyrrolidinyl-1′-yl)-phenyl]-amide trifluoroacetate]",10.5
18,"Cc1cc(N2CCC(N3CCCC3C)C2)ccc1NC(=O)N1Cc2ccccc2C1 (stereo not shown) [Example 18, 1,3-Dihydro-isoindole-2-carboxylic acid [2-methyl-4-(2-methyl-[1,3′]bipyrrolidinyl-1′-yl)-phenyl]-amide trifluoroacetate]",10.8
19,"Cc1cc(NC(=O)Nc2cc(Cl)cc(Cl)c2)ccc1N1CCC(N2CCCC2C)C1 (stereo not shown) [Example 19, 1-(3,5-Dichloro-phenyl)-3-[3-methyl-4-(2-methyl-[1,3′]bipyrrolidinyl-1′-yl)-phenyl]-urea trifluoroacetate]",43
20,"Cc1cc(NC(=O)N2CCN(C)CC2)ccc1N1CCC(N2CCCC2C)C1 (stereo not shown) [Example 20, 4-Methyl-piperazine-1-carboxylic acid [3-methyl-4-(2-methyl-[1,3′]bipyrrolidinyl-1′-yl)-phenyl]-amide trifluoroacetate]",12.7
21,"Cc1cc(NC(=O)N2Cc3ccccc3C2)ccc1N1CCC(N2CCCC2C)C1 (stereo not shown) [Example 21, 1,3-Dihydro-isoindole-2-carboxylic acid [3-methyl-4-(2-methyl-[1,3′]bipyrrolidinyl-1′-yl)-phenyl]-amide trifluoroacetate]",8
22,"CC(=O)N1CCN(C(=O)Nc2ccc(N3CCC(N4CCCC4C)C3)c(C)c2)CC1 (stereo not shown) [Example 22, 4-Acetyl-piperazine-1-carboxylic acid [3-methyl-4-(2-methyl-[1,3′]bipyrrolidinyl-1′-yl)-phenyl]-amide trifluoroacetate]",23
23,"Cc1cc(NC(=O)Nc2cccc(C#N)c2)ccc1N1CCC(N2CCCC2C)C1 (stereo not shown) [Example 23, 1-(3-Cyano-phenyl)-3-[3-methyl-4-(2-methyl-[1,3′]bipyrrolidinyl-1′-yl)-phenyl]-urea trifluoroacetate]",6.3
24,"Cc1cc(NC(=O)N2CCCCC2)ccc1N1CCC(N2CCCC2C)C1 (stereo not shown) [Example 24, Piperidine-1-carboxylic acid [3-methyl-4-(2-methyl-[1,3′]bipyrrolidinyl-1′-yl)-phenyl]-amide trifluoroacetate]",29
25,"CC1CCCN1C1CCN(c2ccc(NC(=O)NCc3cc(Cl)cc(Cl)c3)c(C(F)(F)F)c2)C1 (stereo not shown) [Example 25, 1-(3,5-Dichloro-benzyl)-3-[4-(2-methyl-[1,3′]bipyrrolidinyl-1′-yl)-2-trifluoromethyl-phenyl]-urea trifluoroacetate]",18.1

# — patent publication US8222290B2, “Substituted N-phenyl-bipyrrolidine ureas and therapeutic use thereof” (Sanofi, priority 2007, dated 2012)
